A word on the GI50: it is the concentration that inhibits growth by half.

Results on one molecule are retold here after publication PMC7386434 (Organic letters, 2010).

Molecules are shown by their SMILES.

What all share (assay type): cell-based
The subject of test [1] is human embryonic kidney cell line (HEK293). The experiment in a line: Antiproliferative activity, HEK293 cells. As to conditions: HEK293, read-out: GI50 HEK293.
In test [2] the test system is human lung cancer cell line (A549). The experiment in a line: Antiproliferative activity, A549 cells. As to conditions: A549, read-out: GI50 A549.
In test [3] the test system is human embryonic lung fibroblast (HLF) cells. Briefly: Antiproliferative activity, HLF cells. As to conditions: read-out: GI50 HLF.
In test [4] the test system is colorectal carcinoma cell line HCT-116. Briefly: Antiproliferative activity, HCT-116 cells. As to conditions: Homo sapiens, HCT-116, read-out: GI50 HCT-116.

As to `CCCCCCCC(=O)SCC/C=C/[C@@H]1CC(=O)NCc2nc(cs2)C2=N[C@@](C)(CS2)C(=O)N[C@@H](C(C)C)C(=O)O1` [compound 1, largazole], the concentration for 50% growth inhibition (GI50) came to 1360 nM in test [1], 320 nM in test [2], 980 nM in test [3] and 80 nM in test [4].
